In one test the target is T1, Stim1 or Orai1 puncta (Homo sapiens, UniProt Q96D31).
T1 construct: expressed in transfected cells; host or cells: HEK293T
Description: Orai1 and Stim1 puncta in HEK293T cells overexpressing CFP-Orai1/Stim1-mCherry after thapsigargin. Format: cell-based. Particulars: 10 μM pretreatment 30 min, 1 μM thapsigargin 15 min. The procedure:
FIG. 1A, FIG. 1B, FIG. 1C, FIG. 1D, FIG. 1E, FIG. 1F, FIG. 1G, FIG. 1H, FIG. 1I, FIG. 1J, FIG. 1K, FIG. 1L, FIG. 1M, and FIG. 1N show WRG-28 and atovaquone (Av) suppress the activation of DDR2 and calcium release-activated calcium (CRAC) channel. FIG. 1A indicates HEK293T cells were transiently overexpressed with DDR2 and then pretreated with different compounds (10 μM), including WRG-28, Av, donepezil hydrochloride (Dh), terazosin hydrochloride (Th), verapamil and flecainide for 30 minutes. Verapamil and flecainide were used as negative control here. After that, cells were treated with 50 μg/mL type I collagen for 12 hours. Cell lysates were harvested and subjected to Western blot analysis with antibodies against phosphotyrosine antibody (clone 4G10), DDR2, and β-actin. […] CRAC channel activity was evaluated by applying 1 μM thapsigargin (Thap.) in a calcium-free solution to deplete the endoplasmic reticulum calcium store, followed by the reintroduction of 2 mM Ca^2+ in an external solution. The concentration of cytosolic calcium ions increases as calcium flows through the CRAC channel, leading to the second peak in cytosolic calcium waves. […] Further analyses are presented in FIG. 1I and FIG. 1J, where the second peak of each wave and rate of entry were analyzed. […] The Orai1 and Stim1 puncta in HEK293T cells overexpressed with CFP-Orai1/Stim1-mCherry were assessed. […]

The test system of a further test is NRK49F cells. Description: TGF-β1-induced activation of renal fibroblasts (Western blot). The class given is cell-based, rat. Conditions: 10 μM, 24 hours. How it is done: FIG. 2A, FIG. 2B, FIG. 2C, FIG. 2D, FIG. 2E, FIG. 2F, FIG. 2G-1, and FIG. 2G-2 display how WRG-28 and Av suppress TGF-β1-induced fibroblasts activation and the differentiation of pericytes into myofibroblasts. […] Each bar represents the mean #SEM. […] The protein levels of collagen 1a1 and α-SMA were assessed using Western blot analysis under various conditions. […] Each bar represents mean±SEM. […] The images were acquired using a confocal microscope (Olympus, MPE). FIG. 2G-1 and FIG. 2G-2 display the measurement of angles between collagen fibers and the cell membrane, conducted using Image J. At least five different images from each condition were analyzed. Each bar represents mean±SEM. […]
Cell lysates were harvested in RIPA buffer (150 mM NaCl, 1 mM EGTA, 50 mM Tris pH 7.4, 10% glycerol, 1% Triton X-100, 1% sodium deoxycholate, 0.1% SDS, and protease inhibitor cocktail) and collected from culture dish with cell scrapers. […] The protein expression levels were assessed by specific primary antibodies, including antibodies against phosphotyrosine (clone 4G10; Millipore), DDR2 (R&D), α-SMA (Sigma), Collagen 1a1 (Boster), E-cadherin (BD Biosciences), SGLT2 (Proteintech), NHE1 (Novus) and β-actin (Clone C4, Millipore), followed by incubating with secondary antibodies conjugated with HRP and detected by ECL kit (Thermo Scientific). […]

The next test has as its system Jurkat T cells. Description: Cytokine secretion in T cells (ELISA). The class given is cell-based, human. Particulars: PHA/PMA induction, culture medium.
Test [1] deals with THP-1 derived macrophages. Description: Cytokine secretion in macrophages (ELISA). Format: cell-based, human. Conditions: IFN-γ/LPS induction, culture medium. For orientation: An ELISA detects its analyte on a solid surface through an enzyme-linked reagent.

The text below walks through data of patent US20250339443A1, “METHOD FOR TREATING OR PREVENTING CALCIUM RELEASE-ACTIVATED CALCIUM CHANNEL OR DISCOIDIN DOMAIN RECEPTOR 2 RELATED DISORDERS OR CONDITIONS” (LumiSTAR Biotechnology, Inc., priority 2023, published 2025).

SMILES strings stand for the structures.

T1 sequence (Q96D31 whole entry): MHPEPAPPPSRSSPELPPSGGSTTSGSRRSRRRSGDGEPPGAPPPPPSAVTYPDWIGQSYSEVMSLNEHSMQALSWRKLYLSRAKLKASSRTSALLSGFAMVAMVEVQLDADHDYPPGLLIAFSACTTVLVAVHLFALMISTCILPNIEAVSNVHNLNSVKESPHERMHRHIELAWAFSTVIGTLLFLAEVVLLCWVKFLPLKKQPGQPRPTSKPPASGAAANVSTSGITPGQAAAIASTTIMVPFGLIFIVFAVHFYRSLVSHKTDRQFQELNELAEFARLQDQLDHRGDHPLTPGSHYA

Consider `CCNS(=O)(=O)c1ccc(COc2ccc3nc4ccc(=O)cc-4oc3c2)cc1` [WRG-28], for which the “formation of Stim1 or Orai1 puncta induced by store depletion” value at Stim1 or Orai1 puncta is reported as “unaffected”. Moreover, in the test on NRK49F cells, the “TGF-β1-induced upregulation of collagen 1a1 and α-SMA” value is “significantly suppressed”. Also, in the test on Jurkat T cells, the “secretion of IL-2 in T cells” value is recorded as “significantly reduced”. In test [1], the “secretion of IL-2 in macrophages” value is reported as “significantly reduced”, the “secretion of IL-6 in macrophages” value was “significantly reduced” and the “secretion of TNF-β in macrophages” value is “significantly reduced”.

With `Cc1nnsc1C(=O)Nc1ccc(-n2nc(C(F)(F)F)cc2C(F)(F)F)cc1` [BTP2], the “formation of Stim1 or Orai1 puncta induced by store depletion” value at Stim1 or Orai1 puncta was “unaffected”. Besides, the “TGF-β1-induced upregulation of collagen 1a1 and α-SMA” value in the test on NRK49F cells is listed as “significantly suppressed”. In addition, in the test on Jurkat T cells, the “secretion of IL-2 in T cells” value was “significantly reduced”. Moreover, in test [1], the “secretion of IL-2 in macrophages” value was “significantly reduced”, the “secretion of IL-6 in macrophages” value is “significantly reduced” and the “secretion of TNF-β in macrophages” value is “significantly reduced”.
